From patent US5053070A, “Pyrimidine derivatives, preparation processes thereof, herbicide containing the same, and herbicidal compositions containing the same along with other active ingredient” (Mitsui Toatsu Chemicals, Incorporated, priority 1988, dated 1991)
In brackets after ≈: the same amount, converted by molar mass.

Tests used:
Assay type in all cases: in vivo
barnyardgrass [1] = experiment: Upland foliar application test (Test 3); conditions: 30 g ai/a, foliar spray at 2-3 leaves, 30th day
Summary of the method: (§1)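 Scores record the degree of damage to weeds and injury to crops, observed 30 days after treatment. Each species was seeded in pots of upland-field soil and raised under glass to 2-3 leaves, then its foliage was sprayed with diluted compound emulsion at 5 l per are.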

common lambsquarters = experiment: Upland foliar application test (Test 3); conditions: 30 g ai/a, foliar spray at 2-3 leaves, 30th day
Summary of the method: as §1

foxtail meadow = experiment: Upland foliar application test (Test 3); conditions: 30 g ai/a, foliar spray at 2-3 leaves, 30th day
Summary of the method: as §1

green foxtail = experiment: Upland foliar application test (Test 3); conditions: 30 g ai/a, foliar spray at 2-3 leaves, 30th day
Summary of the method: as §1

johnsongrass = experiment: Upland foliar application test (Test 3); conditions: 30 g ai/a, foliar spray at 2-3 leaves, 30th day
Summary of the method: as §1

large crabgrass = experiment: Upland foliar application test (Test 3); conditions: 30 g ai/a, foliar spray at 2-3 leaves, 30th day
Summary of the method: as §1

redroot pigweed = experiment: Upland foliar application test (Test 3); conditions: 30 g ai/a, foliar spray at 2-3 leaves, 30th day
Summary of the method: as §1

cotton = experiment: Upland foliar application test (Test 3), crop injury; conditions: 30 g ai/a, foliar spray at 2-3 leaves, 30th day
Summary of the method: as §1

peanut = experiment: as above; conditions: 30 g ai/a, foliar spray at 2-3 leaves, 30th day
Summary of the method: as §1

soybean = experiment: as above; conditions: 30 g ai/a, foliar spray at 2-3 leaves, 30th day
Summary of the method: as §1

Sagittaria pygmaea [2] = experiment: Treatment of soil under submerged condition, pre-emergence (Test 4); conditions: 30 g ai/a granule, 30 days later
Summary of the method: (§2)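 First, weed seeds or tubers are sown in soil kept submerged. Next, two pairs of rice seedlings at the 2–3 leaf stage are transplanted per pot and kept in a greenhouse. After one day, before weeds emerge, a granular formulation is applied; damage and injury are rated after 30 days.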

barnyardgrass [3] = experiment: as above; conditions: 30 g ai/a granule, 30 days later
Summary of the method: as §2

bulrush [4] = experiment: as above; conditions: 30 g ai/a granule, 30 days later
Summary of the method: as §2

rice [5] = experiment: Treatment of soil under submerged condition, pre-emergence (Test 4), injury; conditions: 30 g ai/a granule, 30 days later
Summary of the method: as §2

Sagittaria pygmaea [6] = experiment: Treatment of soil under submerged condition, post-emergence (Test 5); conditions: 30 g ai/a granule, 30 days later
Summary of the method: (§3)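 Granule applied to submerged greenhouse pots at two-leaf barnyardgrass; transplanted 2–3-leaf rice present; weed damage and rice injury graded 30 days on.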

barnyardgrass [7] = experiment: as above; conditions: 30 g ai/a granule, post-emergence (barnyardgrass two-leaf stage), 30 days later
Summary of the method: as §3

bulrush [8] = experiment: as above; conditions: 30 g ai/a granule, 30 days later
Summary of the method: as §3

rice [9] = experiment: Treatment of soil under submerged condition, post-emergence (Test 5), injury; conditions: 30 g ai/a granule, 30 days later
Summary of the method: as §3

narrowleaf waterplantain = experiment: Petri dish test (Test 6); conditions: 336 h; seeds on filter paper, 25° C., 14 days; read-out: I80 (ppm)
Summary of the method: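 Narrowleaf waterplantain seeds placed on filter paper pre-treated with compound in acetone (solvent air-dried) in 9 cm Petri dishes with 10 ml water, grown at 25° C in light. Growth was scored after fourteen days as degree of damage against an untreated group.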

| SMILES | Herbicidal effects Barnyardgrass (barnyardgrass [1]) | Herbicidal effects Common lambsquarters (common lambsquarters) | Herbicidal effects Foxtail meadow (foxtail meadow) | Herbicidal effects Green foxtail (green foxtail) | Herbicidal effects Johnsongrass (johnsongrass) | Herbicidal effects Large crabgrass (large crabgrass) | Herbicidal effects Redroot pigweed (redroot pigweed) | Injury Cotton (cotton) | Injury Peanut (peanut) | Injury Soybean (soybean) | Herbicidal effects Sagittaria Pygmaea (Sagittaria pygmaea [2]) | Herbicidal effects Barnyardgrass (barnyardgrass [3]) | Herbicidal effects Bulrush (bulrush [4]) | Injury Rice (rice [5]) | Herbicidal effects Sagittaria Pygmaea (Sagittaria pygmaea [6]) | Herbicidal effects Barnyardgrass (barnyardgrass [7]) | Herbicidal effects Bulrush (bulrush [8]) | Injury Rice (rice [9]) | IC80 (narrowleaf waterplantain) [µg/mL] |
| --- | --- | --- | --- | --- | --- | --- | --- | --- | --- | --- | --- | --- | --- | --- | --- | --- | --- | --- | --- |
| CCc1ccc(C=CCON=Cc2ccccc2Oc2nc(OC)cc(OC)n2)cc1 [compound 37] | 4 (6-10 (Severe damages)) | 4 (6-10 (Severe damages)) | 5 (0-5 (Death)) | 5 (0-5 (Death)) | 5 (0-5 (Death)) | 5 (0-5 (Death)) | 4 (6-10 (Severe damages)) | 0 (91-100 (No damages)) | 0 (91-100 (No damages)) | 0 (91-100 (No damages)) | 4 (6-10 (Severe damages)) | 4 (6-10 (Severe damages)) | 4 (6-10 (Severe damages)) | 0 (91-100 (No damages)) | 4 (6-10 (Severe damages)) | 5 (0-5 (Death)) | 5 (0-5 (Death)) | 1 (71-90 (Slight damages)) | 2 (≈ 4.77 µM) |
| COc1cccc(C=CCON=Cc2ccccc2Oc2nc(OC)cc(OC)n2)c1 [compound 38] | 5 (0-5 (Death)) | 4 (6-10 (Severe damages)) | 4 (6-10 (Severe damages)) | 5 (0-5 (Death)) | 5 (0-5 (Death)) | 5 (0-5 (Death)) | 4 (6-10 (Severe damages)) | 0 (91-100 (No damages)) | 0 (91-100 (No damages)) | 0 (91-100 (No damages)) | 5 (0-5 (Death)) | 4 (6-10 (Severe damages)) | 4 (6-10 (Severe damages)) | 0 (91-100 (No damages)) | 4 (6-10 (Severe damages)) | 5 (0-5 (Death)) | 5 (0-5 (Death)) | 1 (71-90 (Slight damages)) | 2 (≈ 4.75 µM) |
| COc1cc(OC)nc(Oc2ccccc2C=NOCC=Cc2ccccc2Br)n1 [compound 40] | 5 (0-5 (Death)) | 4 (6-10 (Severe damages)) | 5 (0-5 (Death)) | 4 (6-10 (Severe damages)) | 5 (0-5 (Death)) | 4 (6-10 (Severe damages)) | 5 (0-5 (Death)) | 0 (91-100 (No damages)) | 0 (91-100 (No damages)) | 0 (91-100 (No damages)) | 5 (0-5 (Death)) | 5 (0-5 (Death)) | 3 (11-40 (Medium damages)) | 0 (91-100 (No damages)) | 4 (6-10 (Severe damages)) | 5 (0-5 (Death)) | 4 (6-10 (Severe damages)) | 1 (71-90 (Slight damages)) | 2 (≈ 4.25 µM) |
| COc1cc(OC)nc(Oc2ccccc2C=NOCC=Cc2cccc(Cl)c2Cl)n1 [compound 41] | 5 (0-5 (Death)) | 4 (6-10 (Severe damages)) | 4 (6-10 (Severe damages)) | 4 (6-10 (Severe damages)) | 5 (0-5 (Death)) | 5 (0-5 (Death)) | 5 (0-5 (Death)) | 0 (91-100 (No damages)) | 0 (91-100 (No damages)) | 0 (91-100 (No damages)) | 5 (0-5 (Death)) | 5 (0-5 (Death)) | 4 (6-10 (Severe damages)) | 0 (91-100 (No damages)) | 4 (6-10 (Severe damages)) | 5 (0-5 (Death)) | 4 (6-10 (Severe damages)) | 0 (91-100 (No damages)) | 2 (≈ 4.34 µM) |
| COc1cc(OC)nc(Oc2ccccc2C=NOCC#Cc2ccccc2)n1 [compound 42] | 5 (0-5 (Death)) | 4 (6-10 (Severe damages)) | 5 (0-5 (Death)) | 5 (0-5 (Death)) | 5 (0-5 (Death)) | 3 (11-40 (Medium damages)) | 5 (0-5 (Death)) | 0 (91-100 (No damages)) | 0 (91-100 (No damages)) | 0 (91-100 (No damages)) | 5 (0-5 (Death)) | 5 (0-5 (Death)) | 4 (6-10 (Severe damages)) | 0 (91-100 (No damages)) | 5 (0-5 (Death)) | 5 (0-5 (Death)) | 4 (6-10 (Severe damages)) | 0 (91-100 (No damages)) | 17 (≈ 43.7 µM) |
